Consider three compounds from patent publication US5955421A, “Peptides containing D-2-alkyl-Tryptophan” (priority 1990, dated 1999).

SMILES strings stand for the structures. Like-named read-outs stand apart in the source and are kept apart here. Square brackets hold non-standard residues; d marks the D form. Peptide text beside a SMILES is read from it. dTrp(2-Me) = Cc1[nH]c2ccccc2c1C[C@@H](N)C(=O)O; Trp(2-Me) = Cc1[nH]c2ccccc2c1C[C@H](N)C(=O)O; GABA = NCCCC(=O)O

In one data set the test system is plasma testosterone. The note with it: dog, in vivo, sc. Here is the method:
The peptide of Example 3 was formulated in a polymeric PLGA implant in the form of rods which were about 1 cm long and 1 mm in diameter. These implants contained a loading of either 20 or 25% of the peptide (an amount of 7 or 10 mg), and were inserted subcutaneously into in male Beagle dogs which weighed between 10 and 12 kg.

The test system of data set [1] is GH release. Nature of the data set: Plasma GH after s.c. administration in male rats anesthetized with ketamine and xilazine. The data set is classed as in vivo. Here is the method:
(§1) Male Sprague Dawley rats (Charles River, Calco, Italy) of 2-3 months of age were used. Rats were housed at 22 +2° C., with lighting cycle of 14 h light: 10 h dark (lights on from 06.00 to 20.00 h), at least 10 days before starting the experiments. A standard dry diet and water were available ad libitum.
Between 09.00-10.00 h rats were anesthetized with ketamine (58 mg/kg, Inoketam, VIRBAC, Milano) and xilazine (12 mg/kg, Rompun, Bayer, Milano). Thirty minutes later, a blood sample ([…]) was withdrawn from the exposed jugular vein, peptides were injected intravenously or subcutaneously, and further blood samples were collected 10, 20 and 30 minutes later.
(§2) Medium and plasma GH was measured by radioimmunoassay using materials supplied by the NIADDK Bethesda, Md. Values were expressed in term of NIASSK-rat-GH-RP-2 standard (potency 2 IU/ml), as ng/ml of medium or plasma.
(§3) The minimum detectable value of rat was 1.0 ng/ml; intra-assay variability was 6%. To avoid inter-assay variation, samples from each experiment were assayed simultaneously.

Data set [2] has as its system pituitary cell monolayers. Nature of the data set: GH secretion of pituitary cell monolayers incubated with peptides. In kind it is cell-based, rats. The note with it: 2 hours incubation. Here is the method:
as §1
Pituitary tissue used for cell dissociation included only the anterior lobe. Briefly, pituitary glands were collected in sterile F-10 medium and after cutting into small fragments incubated twice (30 minutes each) at 37° C. in F-10 medium containing 6% fetal calf serum and collagenase (2.5 mg/ml) (Boehringer, Mannheim GmbH, Germany). Fragments were then washed in Dulbecco's PBS, Ca^2 + and Mg^2 + free medium and mechanically dissociated. Single cell suspension was planted onto 24-well (2×10^5 cells/well) culture plates. The cells were incubated in F-10 medium supplemented with 10% horse serum, 4% fetal calf serum and gentamycin (25 μg/ml), in a humidified atmosphere of 5% CO2 and 95% air at 37° C.
After 3 days, the medium was removed and the cells washed twice with serum free F-10, then incubated with 1 ml of F-10 containing 0.1% BSA only, or with added various concentrations of synthetic peptides.
After incubation for 2 h at 37° C., media were collected and stored frozen at -20° C. until assayed for measurement of GH content.
as §2, §3

Data set [3] deals with GH release. Nature of the data set: Released GH in ten day-rats, s.c. (Table 9). In kind it is in vivo. Conditions: 300 μg/kg s.c., 15 minutes, GH control 10 to 31 ng/ml depending on experiment. Here is the method: In vivo activity of these compounds was determined in ten day-rats, which were subcutaneously injected (s.c.) with a dose of 300 μg/kg or with different doses in dose-response studies, according to the procedure as described in Deghenghi et. al, Life Sciences 54, 1321 (1994). The released GH was measured 15 minutes following compound administration.

Data set [4] relates to Human hypothalamus tissue. Nature of the data set: Inhibition of 125I-Tyr-Ala-HEXARELIN binding to human hypothalamus tissue membranes. As to the method:
(§4) Tissue membranes (0.1 mg protein) obtained from the heart and hypothalamus of two different adult subjects were incubated in triplicate with a subsaturating concentration (34 pM, about 48,000 cpm, for heart tissue and 42 pM, about 60,000 cpm for hypothalamus tissue) of ^125 I-Tyr-Ala-HEXARELIN for 40 min at 0° C. in the absence and in the presence of increasing concentrations of the indicated unlabelled peptides. The value in parentheses represents the % of inhibition of ^125 I-Tyr-Ala-HEXARELIN specifically bound.
(§5) The specific binding of ^125 I-Tyr-Ala-HEXARELIN/0.1 mg membrane protein is expressed as a percent of total radioactivity added.

A further data set concerns Human heart tissue. In words: Inhibition of 125I-Tyr-Ala-HEXARELIN binding to human heart tissue membranes. As to the method:
as §4, §5

Another data set concerns Growth Hormone release. Nature of the data set: GH release in 10-day old rats, s.c. 160 μg/kg. The data set is classed as in vivo. The note with it: 160 μg/kg s.c. Here is the method: The peptides of Examples 4 and 5 were tested as Growth Hormone releasers in rats. GH released in a series of seven 10-day old rats, injected subcutaneously with a standard dose of 160 μg/kg and sacrificed 15 minutes after the injection.

Data set [5] can be described thus: Hydrophobicity comparison (FIG. 12). The data set is classed as physicochemical. The text has this: FIG. 12 is a graphical comparison of the hydrophobicity of GHRP-6 and HEXARELIN;
The test system of the next data set is growth hormone secretion. Nature of the data set: Growth hormone secretion in young healthy male volunteers. In kind it is in vivo, human. Conditions: young (20-30 years old) healthy male volunteers, various dosages, FIGS. 18-20. Here is the method:
The effects of HEXARELIN on growth hormone secretion in young (20-30 years old) healthy male volunteers were measured after the administration of various dosages.

The next data set relates to rat. In words: Acute cardiovascular toxicity in the rat, single i.v. dose, mortality. In kind it is in vivo. The note with it: for Dead rats/Total No of rats per group: observed up to 4 hours. Here is the method:
These two peptides were also tested for acute cardiovascular toxicity in the rat.
Dosages were calculated on the basis of the declared peptide content in each product, as specified below:
A single dose of HEXARELIN or GHRP-6 was administered to rats in different calendar dates in such a way that each group/dose should be treated in two subsequent days.
For each compound, appropriate amounts of solutions in 0.9% NaCl for injection were prepared just before treatment at the suitable concentrations. The solutions were sterilized by filtration (Millipore filter, pore size 0.22 μm). Owing to the type of the study (acute study) in which formulates were administered just after preparation, stability checks were not performed. Concentration checks were also not performed. The volume of solution injected was maintained constant at 1 ml/Kg.
The intravenous injections were done as a single dose in one vein of the tail with an appropriately gauged sterile, disposable, plastic syringe. The injection rate was about 0.1 ml/sec.
Periodical observations were made up to 4 hours after treatment. Abnormality and mortality were recorded. Body weight was recorded once during pre-trial and on the administration day to calculate the volumes to be injected.

The test system of data set [6] is serum growth hormone and cortisol. In words: Oral capsule in healthy subjects, serum growth hormone and cortisol. In kind it is in vivo, human. Conditions: 20 mg capsule, 5 healthy subjects. Here is the method: A capsule containing 20 mg of the peptide of Example 18 was orally administered to 5 healthy subjects (3 men and 2 women, ages 30 to 66) and serum growth hormone and cortisol levels were measured at various times after administration.

Setting [7] is: mean of two subjects, read-out: mean IC50 value.
Where [8] appears, read: subject 1, read-out: IC50 value.
[9] abbreviates: subject 2, read-out: IC50 value.

With `CCNC(=O)[C@@H]1CCCN1C(=O)[C@H](CCCNC(=N)N)NC(=O)[C@H](CC(C)C)NC(=O)[C@@H](Cc1c(C)[nH]c2ccccc12)NC(=O)[C@H](Cc1ccc(O)cc1)NC(=O)[C@H](CO)NC(=O)[C@H](Cc1c[nH]c2ccccc12)NC(=O)[C@H](Cc1c[nH]cn1)NC(=O)[C@@H]1CCC(=O)N1` [Example 3, Pyro-Glu-His-Trp-Ser-Tyr-D-2-alkyl-Trp-Leu-Arg-Pro-NHCH2 CH3], the clinical side effects result in the data set on plasma testosterone is listed as “No clinical side effects were observed”.
In the case of `Cc1[nH]c2ccccc2c1C[C@@H](NC(=O)[C@@H](N)Cc1cnc[nH]1)C(=O)N[C@@H](C)C(=O)N[C@@H](Cc1c[nH]c2ccccc12)C(=O)N[C@H](Cc1ccccc1)C(=O)N[C@@H](CCCCN)C(N)=O` [Example 4, His-D-2-methyl-Trp-Ala-Trp-D-Phe-Lys-NH2] (H-H[dTrp(2-Me)]AW[dF]K-NH2), the “plasma GH” value in the data set with GH release [1] (s.c. 600 μg/kg, 30 min) worked out at 115.3 ± 19.1 ng/mL. Further, the “GH-releasing effectiveness compared” value in the data set on GH release [1] (s.c. 150, 300 and 600 μg/kg, 10, 20 and 30 minutes) is “more effective than GHRP-6 at all the considered times”. The GH-releasing activity was determined as 558.0 ± 19.1 ng/well in data set [2] (10^-6 M), 589.1 ± 17.9 ng/well in data set [2] (10^-7 M) and 557.8 ± 15.9 ng/well in [2] (10^-8 M). Further, the GH released in the data set on GH release [3] was 104.2 ± 13.1 ng/mL. In addition, the “inhibition of 125I-Tyr-Ala-HEXARELIN specifically bound” value in data set [4] (0.1 nM peptide, subject 1) was 3%; in [4] (0.1 nM peptide, subject 2) it was 4%; in data set [4] (1 nM peptide, subject 1), 16%; in [4] (1 nM peptide, subject 2), 19%; in [4] (10 nM peptide, subject 1), 51%; in data set [4] (10 nM peptide, subject 2), 67%. In addition, the “inhibition of 125I-Tyr-Ala-HEXARELIN specifically bound” value in data set [4] (100 nM peptide, subject 1) stood at 89%; in [4] (100 nM peptide, subject 2), 93%; in data set [4] (1000 nM peptide, subject 1) it was 100%; in [4] (1000 nM peptide, subject 2) it was 100%; with Human heart tissue (0.1 nM peptide, subject 1), 4%; in the data set with Human heart tissue (0.1 nM peptide, subject 2), 5%. Also, the “inhibition of 125I-Tyr-Ala-HEXARELIN specifically bound” value came to 20% with Human heart tissue (1 nM peptide, subject 1); 28% in the data set with Human heart tissue (1 nM peptide, subject 2); 51% in the data set with Human heart tissue (10 nM peptide, subject 1); 56% with Human heart tissue (10 nM peptide, subject 2); 92% with Human heart tissue (100 nM peptide, subject 1); 90% in the data set on Human heart tissue (100 nM peptide, subject 2). In addition, the “inhibition of 125I-Tyr-Ala-HEXARELIN specifically bound” value with Human heart tissue (1000 nM peptide, subject 1) was 100%; in the data set on Human heart tissue (1000 nM peptide, subject 2) it was 100%. The “specific binding of 125I-Tyr-Ala-HEXARELIN” value (from here on “specific binding”) in data set [4] (0.1 nM peptide, subject 1) was 10.7% of total radioactivity; in data set [4] (0.1 nM peptide, subject 2) it was 9.1% of total radioactivity; in [4] (1 nM peptide, subject 1), 9.6% of total radioactivity; in [4] (1 nM peptide, subject 2), 7.7% of total radioactivity; in data set [4] (10 nM peptide, subject 1) it was 5.2% of total radioactivity; in data set [4] (10 nM peptide, subject 2), 3.1% of total radioactivity. In addition, the “specific binding” value in data set [4] (100 nM peptide, subject 1) is 1.2% of total radioactivity; in data set [4] (100 nM peptide, subject 2), 0.7% of total radioactivity; in data set [4] (1000 nM peptide, subject 1) it was 0% of total radioactivity; in [4] (1000 nM peptide, subject 2), 0% of total radioactivity; in the data set on Human heart tissue (0.1 nM peptide, subject 1), 20.1% of total radioactivity; in the data set with Human heart tissue (0.1 nM peptide, subject 2), 22.8% of total radioactivity. Also, the “specific binding” value with Human heart tissue (1 nM peptide, subject 1) is on record as 16.9% of total radioactivity; in the data set on Human heart tissue (1 nM peptide, subject 2), 17.3% of total radioactivity; in the data set on Human heart tissue (10 nM peptide, subject 1) it was 10.4% of total radioactivity; in the data set on Human heart tissue (10 nM peptide, subject 2), 10.5% of total radioactivity; in the data set on Human heart tissue (100 nM peptide, subject 1), 1.7% of total radioactivity; in the data set on Human heart tissue (100 nM peptide, subject 2), 2.4% of total radioactivity. Further, the “specific binding” value with Human heart tissue (1000 nM peptide, subject 1) is given as 0% of total radioactivity; with Human heart tissue (1000 nM peptide, subject 2), 0% of total radioactivity. Further, the IC50 (usually the midpoint of a concentration-inhibition curve) in [4] (setting [7]) worked out at 7 nM; in data set [4] (setting [8]) it was 8.9 nM; in data set [4] (setting [9]), 5 nM; on Human heart tissue (setting [7]) it was 9.5 nM; on Human heart tissue (setting [8]), 10.6 nM; at Human heart tissue (setting [9]) it was 8.3 nM. Besides, the “activity as Growth Hormone releaser” value in the data set on Growth Hormone release is on record as “very active”. Further, in data set [5], the “hydrophobicity” value was “greater hydrophobicity than GHRP-6”. Also, the “effect on growth hormone secretion” value in the data set with growth hormone secretion is given as “effective in vivo”. Moreover, the “Dead rats/Total No of rats per group” value is on record as 0/6 in the data set with rat (5.0 mg/kg i.v. single dose), 1/6 in the data set on rat (7.5 mg/kg i.v. single dose) and 2/6 in the data set on rat (10 mg/kg i.v. single dose). Also, in the data set with rat (i.v. single dose, rat), the “toxicity compared” value is on record as “less toxic than GHRP-6”.
For the compound `Cc1[nH]c2ccccc2c1C[C@H](NC(=O)[C@@H](Cc1c(C)[nH]c2ccccc12)NC(=O)[C@@H](Cc1c(C)[nH]c2ccccc12)NC(=O)CCCN)C(=O)N[C@@H](CCCCN)C(N)=O` [Example 18, GAB-D-2-Mrp-D-2-Mrp-2-Mrp-Lys-NH2] (H-[GABA][dTrp(2-Me)][dTrp(2-Me)][Trp(2-Me)]K-NH2), the “cortisol levels” value in data set [6] is on record as “without cortisol stimulation”.
